Data taken from the supplement of paper PMC13380429.

Key:
Conditions in all cases: 72 h
[1] = test system: Calu-3; assay: cell viability relative to DMSO; higher = less toxic
[2] = test system: Vero E6; assay: as above
[3] = test system: U2OS; assay: as above
[4] = test system: Caco-2; assay: as above
[5] = test system: HepG2; assay: as above
[6] = test system: Calu-3; assay: drug sensitivity score (DSS) for viability; higher = more toxic; extreme values may be limits of the assay
[7] = test system: Vero E6; assay: as above
[8] = test system: U2OS; assay: as above
[9] = test system: Caco-2; assay: as above
[10] = test system: HepG2; assay: as above
[11] = test system: Calu-3; assay: relative viability EC50 (midpoint between 100% and the lowest measured viability); higher = less toxic
[12] = test system: HepG2; assay: as above
[13] = test system: U2OS; assay: as above
[14] = test system: Caco-2; assay: as above

Cc1cc(N2CCOCC2)ccc1Nc1nc(NC2CCCCC2)c2nc[nH]c2n1
cell viability ([1]; 1 nM): 100%
cell viability ([1]; 10 nM): 98%
cell viability ([1]; 100 nM): 98.6%
cell viability ([1]; 1000 nM): 98.4%
cell viability ([1]; 10000 nM): 85%
cell viability ([2]; 1 nM): 96.9%
cell viability ([2]; 10 nM): 99.6%
cell viability ([2]; 100 nM): 98.2%
cell viability ([2]; 1000 nM): 60.1%
cell viability ([2]; 10000 nM): 60.8%
cell viability ([3]; 1 nM): 97%
cell viability ([3]; 10 nM): 104%
cell viability ([3]; 100 nM): 101%
cell viability ([3]; 1000 nM): 68%
cell viability ([3]; 10000 nM): 55.4%
cell viability ([4]; 1 nM): 102%
cell viability ([4]; 10 nM): 104%
cell viability ([4]; 100 nM): 101%
cell viability ([4]; 1000 nM): 88.5%
cell viability ([4]; 10000 nM): 69.4%
cell viability ([5]; 1 nM): 99.1%
cell viability ([5]; 10 nM): 107%
cell viability ([5]; 100 nM): 98%
cell viability ([5]; 1000 nM): 51.8%
cell viability ([5]; 10000 nM): 43.5%
drug sensitivity score [6]: 0.4
drug sensitivity score [7]: 7.4
drug sensitivity score [8]: 6.1
drug sensitivity score [9]: 2.9
drug sensitivity score [10]: 9.1
relative viability EC50 [11]: > 10 µM
relative viability EC50 [12]: 0.455 µM

Cc1cccc(NC(=O)CN2CCC(c3ccccn3)CC2)c1
cell viability ([1]; 1 nM): 110%
cell viability ([1]; 10 nM): 101%
cell viability ([1]; 100 nM): 109%
cell viability ([1]; 1000 nM): 108%
cell viability ([1]; 10000 nM): 98.1%
cell viability ([3]; 1 nM): 98.9%
cell viability ([3]; 10 nM): 97.9%
cell viability ([3]; 100 nM): 94.7%
cell viability ([3]; 1000 nM): 98.1%
cell viability ([3]; 10000 nM): 93.9%
cell viability ([4]; 1 nM): 98.7%
cell viability ([4]; 10 nM): 101%
cell viability ([4]; 100 nM): 95%
cell viability ([4]; 1000 nM): 91.3%
cell viability ([4]; 10000 nM): 93.9%
cell viability ([5]; 1 nM): 108%
cell viability ([5]; 10 nM): 103%
cell viability ([5]; 100 nM): 97%
cell viability ([5]; 1000 nM): 102%
cell viability ([5]; 10000 nM): 101%
drug sensitivity score [6]: 0
drug sensitivity score [8]: 0
drug sensitivity score [9]: 0
drug sensitivity score [10]: 0
relative viability EC50 [11]: > 10 µM
relative viability EC50 [13]: > 10 µM
relative viability EC50 [14]: > 10 µM
relative viability EC50 [12]: > 10 µM

Cn1cc(-c2ccncc2)c(-c2ccc(OCc3ccc4ccccc4n3)cc2)n1
cell viability ([1]; 1 nM): 104%
cell viability ([1]; 10 nM): 105%
cell viability ([1]; 100 nM): 103%
cell viability ([1]; 1000 nM): 98.9%
cell viability ([1]; 10000 nM): 77.1%
cell viability ([3]; 1 nM): 94%
cell viability ([3]; 10 nM): 101%
cell viability ([3]; 100 nM): 96.7%
cell viability ([3]; 1000 nM): 94.6%
cell viability ([3]; 10000 nM): 87.5%
cell viability ([4]; 1 nM): 91.1%
cell viability ([4]; 10 nM): 106%
cell viability ([4]; 100 nM): 90.5%
cell viability ([4]; 1000 nM): 106%
cell viability ([4]; 10000 nM): 67.2%
cell viability ([5]; 1 nM): 105%
cell viability ([5]; 10 nM): 99.2%
cell viability ([5]; 100 nM): 108%
cell viability ([5]; 1000 nM): 95.6%
cell viability ([5]; 10000 nM): 91.5%
drug sensitivity score [6]: 0.9
drug sensitivity score [8]: 0
drug sensitivity score [9]: 1.2
drug sensitivity score [10]: 0
relative viability EC50 [11]: > 10 µM
relative viability EC50 [13]: > 10 µM
relative viability EC50 [12]: > 10 µM

NC(=O)[C@@H](CC1CC1)[C@@H](CCC(F)(F)F)C(=O)N[C@H]1N=C(c2ccccc2)c2cccc(F)c2NC1=O
cell viability ([1]; 1 nM): 110%
cell viability ([1]; 10 nM): 99.4%
cell viability ([1]; 100 nM): 91.9%
cell viability ([1]; 1000 nM): 85.8%
cell viability ([1]; 10000 nM): 99.1%
cell viability ([3]; 1 nM): 99%
cell viability ([3]; 10 nM): 96.4%
cell viability ([3]; 100 nM): 94.1%
cell viability ([3]; 1000 nM): 94.1%
cell viability ([3]; 10000 nM): 92.7%
cell viability ([4]; 1 nM): 97.7%
cell viability ([4]; 10 nM): 98.4%
cell viability ([4]; 100 nM): 96.5%
cell viability ([4]; 1000 nM): 96.2%
cell viability ([4]; 10000 nM): 85.2%
cell viability ([5]; 1 nM): 94.3%
cell viability ([5]; 10 nM): 106%
cell viability ([5]; 100 nM): 105%
cell viability ([5]; 1000 nM): 91.9%
cell viability ([5]; 10000 nM): 106%
drug sensitivity score [6]: 0
drug sensitivity score [8]: 0
drug sensitivity score [9]: 0.4
drug sensitivity score [10]: 0
relative viability EC50 [11]: > 10 µM
relative viability EC50 [13]: > 10 µM
relative viability EC50 [14]: > 10 µM
relative viability EC50 [12]: > 10 µM

N#C/C(=C\c1ccc(O)c(O)c1)C(=O)NCCCCc1ccccc1 [AG-556]
cell viability ([1]; 1 nM): 95.7%
cell viability ([1]; 10 nM): 101%
cell viability ([1]; 100 nM): 102%
cell viability ([1]; 1000 nM): 110%
cell viability ([1]; 10000 nM): 98.7%
cell viability ([2]; 1 nM): 95.8%
cell viability ([2]; 10 nM): 95.6%
cell viability ([2]; 100 nM): 100%
cell viability ([2]; 1000 nM): 95.9%
cell viability ([2]; 10000 nM): 62.5%
cell viability ([3]; 1 nM): 98.5%
cell viability ([3]; 10 nM): 99%
cell viability ([3]; 100 nM): 94.7%
cell viability ([3]; 1000 nM): 99%
cell viability ([3]; 10000 nM): 75.8%
cell viability ([4]; 1 nM): 94%
cell viability ([4]; 10 nM): 94.2%
cell viability ([4]; 100 nM): 101%
cell viability ([4]; 1000 nM): 101%
cell viability ([4]; 10000 nM): 50.1%
cell viability ([5]; 1 nM): 93.3%
cell viability ([5]; 10 nM): 101%
cell viability ([5]; 100 nM): 97.8%
cell viability ([5]; 1000 nM): 108%
cell viability ([5]; 10000 nM): 71.1%
drug sensitivity score [6]: 0
drug sensitivity score [7]: 2.5
drug sensitivity score [8]: 1
drug sensitivity score [9]: 2.5
drug sensitivity score [10]: 0.9
relative viability EC50 [11]: > 10 µM
relative viability EC50 [13]: > 10 µM

CC(C)(C)C1CCc2c(sc(NC(=O)c3ccco3)c2C(=O)O)C1 (stereo not drawn) [CaCCinh-A01]
cell viability ([1]; 1 nM): 91.2%
cell viability ([1]; 10 nM): 99.5%
cell viability ([1]; 100 nM): 103%
cell viability ([1]; 1000 nM): 96.4%
cell viability ([1]; 10000 nM): 99.6%
cell viability ([2]; 1 nM): 98.8%
cell viability ([2]; 10 nM): 98.8%
cell viability ([2]; 100 nM): 106%
cell viability ([2]; 1000 nM): 98.5%
cell viability ([2]; 10000 nM): 72.9%
cell viability ([3]; 1 nM): 98.8%
cell viability ([3]; 10 nM): 101%
cell viability ([3]; 100 nM): 96.2%
cell viability ([3]; 1000 nM): 97.1%
cell viability ([3]; 10000 nM): 98%
cell viability ([4]; 1 nM): 102%
cell viability ([4]; 10 nM): 103%
cell viability ([4]; 100 nM): 97.1%
cell viability ([4]; 1000 nM): 97.8%
cell viability ([4]; 10000 nM): 82.2%
cell viability ([5]; 1 nM): 115%
cell viability ([5]; 10 nM): 90.8%
cell viability ([5]; 100 nM): 103%
cell viability ([5]; 1000 nM): 87.2%
cell viability ([5]; 10000 nM): 69.3%
drug sensitivity score [6]: 0
drug sensitivity score [7]: 1.3
drug sensitivity score [8]: 0
drug sensitivity score [9]: 0.7
drug sensitivity score [10]: 3
relative viability EC50 [11]: > 10 µM
relative viability EC50 [13]: > 10 µM
relative viability EC50 [14]: > 10 µM

CC(C)(O)c1coc(S(=O)(=O)NC(=O)Nc2c3c(cc4c2CCC4)CCC3)c1 [MCC950]
cell viability ([1]; 1 nM): 120%
cell viability ([1]; 10 nM): 105%
cell viability ([1]; 100 nM): 100%
cell viability ([1]; 1000 nM): 103%
cell viability ([1]; 10000 nM): 99.3%
cell viability ([3]; 1 nM): 104%
cell viability ([3]; 10 nM): 103%
cell viability ([3]; 100 nM): 105%
cell viability ([3]; 1000 nM): 97.7%
cell viability ([3]; 10000 nM): 102%
cell viability ([4]; 1 nM): 106%
cell viability ([4]; 10 nM): 96.1%
cell viability ([4]; 100 nM): 102%
cell viability ([4]; 1000 nM): 96.9%
cell viability ([4]; 10000 nM): 104%
cell viability ([5]; 1 nM): 97.9%
cell viability ([5]; 10 nM): 95.9%
cell viability ([5]; 100 nM): 102%
cell viability ([5]; 1000 nM): 113%
cell viability ([5]; 10000 nM): 105%
drug sensitivity score [6]: 0
drug sensitivity score [8]: 0
drug sensitivity score [9]: 0
drug sensitivity score [10]: 0
relative viability EC50 [11]: > 10 µM
relative viability EC50 [13]: > 10 µM
relative viability EC50 [14]: > 10 µM
relative viability EC50 [12]: > 10 µM
